Source: US20250170112A1, “ADENOSINE LIGANDS FOR THE TREATMENT OF NEUROLOGICAL DISORDERS” (Lucy Therapeutics, Inc., priority 2022, published 2025)

Legend:
[1] = target: T1, human Adenosine A1 receptor (Homo sapiens, UniProt P30542); assay: GTPγS scintillation proximity assay, agonist testing; format: biochemical; conditions: agonist activity; membrane extracts of CHO-K1 cells expressing recombinant human A1; read-out: A1AR EC50
T1 construct: host or cells: CHO-K1
T1 sequence (P30542 1-326): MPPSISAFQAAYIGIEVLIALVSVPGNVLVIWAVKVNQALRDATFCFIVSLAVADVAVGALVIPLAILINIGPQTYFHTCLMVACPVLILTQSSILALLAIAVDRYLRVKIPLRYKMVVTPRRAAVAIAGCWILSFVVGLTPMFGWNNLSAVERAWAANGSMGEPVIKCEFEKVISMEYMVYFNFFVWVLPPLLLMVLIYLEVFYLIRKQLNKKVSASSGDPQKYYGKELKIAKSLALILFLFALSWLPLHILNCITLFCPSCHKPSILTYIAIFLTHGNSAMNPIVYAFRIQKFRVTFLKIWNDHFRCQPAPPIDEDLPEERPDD
Description: (§1) SPA ^35S-GTPγS experiments were conducted with Epics Therapeutics membrane preparations. cAMP HTRF assays were conducted with recombinant cell lines.
• Assay buffer: 20 mM HEPES pH 7.4; 100 mM NaCl, 10 μg/mL saponin, MgCl2 at optimized concentration for the specific receptor. • Membranes: membrane extracts prepared from CHO-K1 cells expressing recombinant human Adenosine A1 receptor, thawed on ice, diluted in assay buffer and kept on ice. • GDP: diluted in assay buffer at the optimized concentration for the specific receptor Beads: PVT-WGA (Perkin Elmer, RPNQ001), diluted in assay buffer at 50 mg/mL (0.5 mg/10 μL) • GTPγ^35S: (Perkin Elmer, NEG030X), diluted in assay buffer for a final 0.1 nM assay concentration
Protocol for agonist testing: membranes are mixed with GDP (volume:volume). In parallel, GTPγ[^35S] is mixed with the beads (volume:volume) just before starting the reaction. The following reagents are successively added in the wells of an Optiplate (Perkin Elmer): 50 μL of test or reference ligand, 25 μL of the membranes:GDP mix, and 25 μL of the GTPγ[^35S]:beads mix. The plates are covered with a top seal, mixed on an orbital shaker for 2 min, and then incubated for 1 hour at room temperature. Then the plates are centrifuged for 10 min at 2000 rpm, incubated at room temperature and counted for 30 sec/well with a PerkinElmer TopCount™ reader. • Conditions for the GTPγS scintillation proximity assay are shown in Table 14.

[2] = target: T2, human A2B (Homo sapiens, UniProt P29275); assay: cAMP HTRF assay for Gs coupled receptor, agonist test; format: cell-based; conditions: agonist activity; HEK293 cells expressing recombinant human A2B; read-out: A2BAR EC50
T2 construct: expressed in transfected cells; host or cells: HEK293
T2 sequence (P29275 1-332): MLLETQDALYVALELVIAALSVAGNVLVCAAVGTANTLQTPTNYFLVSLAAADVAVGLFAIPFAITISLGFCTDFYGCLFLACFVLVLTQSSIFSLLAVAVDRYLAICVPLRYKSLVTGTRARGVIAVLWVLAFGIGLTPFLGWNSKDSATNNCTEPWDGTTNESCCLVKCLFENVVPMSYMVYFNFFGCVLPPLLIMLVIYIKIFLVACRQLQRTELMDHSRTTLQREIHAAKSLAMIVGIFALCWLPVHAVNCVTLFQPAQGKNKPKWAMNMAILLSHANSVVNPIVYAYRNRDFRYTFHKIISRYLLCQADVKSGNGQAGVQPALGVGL
Description: as §1
Dose response curves are performed in parallel with the reference compounds.
For agonist test (96 well): 12 μL of cells are mixed with 12 μL of the test compound at increasing concentrations and then incubated 30 min at room temperature. After addition of the lysis buffer containing cAMP-d2 and anti-cAMP cryptate detection reagents, plates are incubated 1 hour incubation at room temperature, and fluorescence ratios are measured according to the manufacturer specification, with the HTRF kit.

| EC50 [1] | EC50 [2] | SMILES |
| --- | --- | --- |
| 109 nM | 64 nM | N#Cc1c(N)nc(SCCOC(F)F)c(C#N)c1-c1ccc(OCCO)cc1 [Compound 93] |
| 7.9 nM | 563 nM | COc1cccc(CSc2nc(N)c(C#N)c(-c3ccc(OC4COC4)cc3)c2C#N)c1 [Compound 33] |
| 55.9 nM | > 10000 nM | N#Cc1c(SCC2COC2)nc(N2CC(F)C2)c(C#N)c1-c1ccc(OCCO)cc1 [Compound 275] |
| > 10000 nM | > 10000 nM | COCCOc1ccc(-c2c(C#N)c(N)nc(SCc3cncc4[nH]ccc34)c2C#N)cc1 [Compound 216] |
| > 10000 nM | 6450 nM | COCCOc1ccc(-c2c(C#N)c(N)nc(S[C@H](C)c3ccccn3)c2C#N)cc1 [Compound 243] |
| 2.9 nM | 3.9 nM | N#Cc1c(SCc2cccnc2)nc(N2CCC2)c(C#N)c1-c1ccc(OCCO)cc1 [Compound 116] |
| 78.5 nM | > 10000 nM | N#Cc1c(N)nc(SCC2COC2)c(C#N)c1-c1ccc(O[C@H]2C[C@H](O)C2)cc1 [Compound 303] |
| 17.6 nM | > 10000 nM | COCCOc1ccc(-c2c(C#N)c(N)nc(SCc3cccc4[nH]ccc34)c2C#N)cc1 [Compound 67] |
| 1020 nM | > 10000 nM | COCCOc1ccc(-c2c(C#N)c(N)nc(SCCC#N)c2C#N)cc1 [Compound 122] |
| 586 nM | 213 nM | N#Cc1c(SCc2cnccn2)nc(N2CCC2)c(C#N)c1-c1ccc(OCCO)cc1 [Compound 6] |
| 37.1 nM | 37.7 nM | N#Cc1c(N)nc(SCc2cccc3[nH]ccc23)c(C#N)c1-c1ccc(OCCO)cc1 [Compound 8] |
| 347 nM | 869 nM | N#Cc1c(SCCO)nc(N2CCC2)c(C#N)c1-c1ccc(OCCO)cc1 [Compound 90] |
| 61 nM | 28 nM | COCCSc1nc(N)c(C#N)c(-c2ccc(OCCO)cc2)c1C#N [Compound 151] |
| > 10000 nM | > 10000 nM | COCCOc1ccc(-c2c(C#N)c(SCc3cccnc3)nc(N(C)C)c2C#N)cc1 [Compound 286] |
| > 10000 nM | 2410 nM | COCCOc1ccc(-c2c(C#N)c(N)nc(SCc3ccnc4[nH]ccc34)c2C#N)cc1 [Compound 4] |
| 327 nM | 576 nM | N#CCCSc1nc(N)c(C#N)c(-c2ccc(OCCO)cc2)c1C#N [Compound 121] |
| 31.4 nM | 65.9 nM | CCOCCSc1nc(N)c(C#N)c(-c2ccc(OCCO)cc2)c1C#N [Compound 27] |
| 87 nM | 4.5 nM | CNC(=O)CSc1nc(N)c(C#N)c(-c2ccc(OCCO)cc2)c1C#N [Compound 139] |
| 326 nM | > 10000 nM | N#Cc1c(N)nc(SCC2(F)COC2)c(C#N)c1-c1ccc(OC2COC2)cc1 [Compound 227] |
| > 10000 nM | > 10000 nM | N#Cc1c(SCc2cccnc2)nc(N2CCC2)c(C#N)c1-c1ccc(OCCOC(F)F)cc1 [Compound 262] |
| 13.9 nM | > 10000 nM | COCCOc1ccc(-c2c(C#N)c(SCc3cccnc3)nc(N3CC(O)C3)c2C#N)cc1 [Compound 278] |
| 44 nM | 6.8 nM | N#Cc1cnc(SCc2cccnc2)c(C#N)c1-c1ccc(OCCO)cc1 [Compound 84] |
| > 10000 nM | 5570 nM | N#Cc1c(N)nc(SCC2COC2)c(C#N)c1-c1ccc(OC2CCCOC2)cc1 (stereo not shown) [Compound 308] |
| > 10000 nM | > 10000 nM | COC1CC(Oc2ccc(-c3c(C#N)c(N)nc(SCC4CCOC4)c3C#N)cc2)C1 (stereo not shown) [Compound 321] |
| 140 nM | 1120 nM | N#Cc1c(N)nc(SCC2CCOCC2)c(C#N)c1-c1ccc(OC2COC2)cc1 [Compound 305] |

| EC50 [1] | EC50 [2] | SMILES |
| --- | --- | --- |
| 14.1 nM | 3 nM | N#Cc1c(SCc2cccnn2)nc(N2CCC2)c(C#N)c1-c1ccc(OCCO)cc1 [Compound 20] |
| 154 nM | > 10000 nM | N#Cc1c(N)nc(SCC2COC2)c(C#N)c1-c1ccc(OC2CCOC2)cc1 (stereo not shown) [Compound 219] |
| 20 nM | 0.9 nM | N#Cc1c(N)nc(SCc2cncnc2)c(C#N)c1-c1ccc(OCCO)cc1 [Compound 175] |
| > 10000 nM | > 10000 nM | COCCOc1ccc(-c2c(C#N)c(N)nc(SCc3cccc4[nH]cnc34)c2C#N)cc1 [Compound 215] |
| 620 nM | > 10000 nM | N#Cc1cnc(SCC2COC2)c(C#N)c1-c1ccc(OCCO)cc1 [Compound 61, 4-[4-(2-hydroxyethoxy)phenyl]-2-(oxetan-3-ylmethythio)pyridine-3,5-dicarbonitrile] |
| 2 nM | 0.1 nM | N#Cc1c(N)nc(SCc2cccnc2)c(C#N)c1-c1ccc(OCCO)cc1 [Compound 183] |
| 177 nM | 59 nM | CNC(=O)CSc1nc(N)c(C#N)c(-c2ccc(OCCOC)cc2)c1C#N [Compound 146] |
| 1.5 nM | 401 nM | N#Cc1c(N)nc(SCC2COC2)c(C#N)c1-c1ccc(OCCO)cc1 [Compound 223] |
| 64.8 nM | 894 nM | Cn1ccc2c(CSc3nc(N)c(C#N)c(-c4ccc(OC5COC5)cc4)c3C#N)cccc21 [Compound 302] |
| 72 nM | > 10000 nM | COCCOc1ccc(-c2c(C#N)c(N)nc(SCC3COC3)c2C#N)cc1 [Compound 123] |
| 2.05 nM | > 10000 nM | COCCOc1ccc(-c2c(C#N)c(Sc3cccnc3)nc(N3CC(F)C3)c2C#N)cc1 [Compound 245] |
| 891 nM | 2460 nM | CN(C)C(=O)CSc1nc(N)c(C#N)c(-c2ccc(OCCO)cc2)c1C#N [Compound 138] |
| 9.8 nM | > 10000 nM | N#Cc1c(N)nc(SCC2CCOC2)c(C#N)c1-c1ccc(OC2COC2)cc1 (stereo not shown) [Compound 24] |
| 205 nM | > 10000 nM | COCCOc1ccc(-c2c(C#N)c(SCC3COC3)nc(N3CC(O)C3)c2C#N)cc1 [Compound 270] |
| 208 nM | 9890 nM | N#Cc1c(N)nc(SCC2OCCCO2)c(C#N)c1-c1ccc(OC2COC2)cc1 [Compound 291] |
| 944 nM | > 10000 nM | COCCOc1ccc(-c2c(C#N)c(N)nc(SCC3CCO3)c2C#N)cc1 (stereo not shown) [Compound 112] |
| 25 nM | > 10000 nM | COCCOc1ccc(-c2c(C#N)c(N)nc(SCCO)c2C#N)cc1 [Compound 192] |
| 71 nM | > 10000 nM | COCCOc1ccc(-c2c(C#N)c(N)nc(SCc3ccnnc3)c2C#N)cc1 [Compound 194] |
| > 10000 nM | 198 nM | N#Cc1c(SCc2cccnc2)nc(N2CCC2)c(C#N)c1-c1ccc(OC(F)(F)CO)cc1 [Compound 259, 2-(Azetidin-1-yl)-4-(4-(1,1-difluoro-2-hydroxyethoxy)phenyl)-6-((pyridin-3-ylmethyl)thio)pyridine-3,5-dicarbonitrile] |
| 567 nM | > 10000 nM | COCCOc1ccc(-c2c(C#N)c(N)nc(CCc3cccnc3)c2C#N)cc1 [Compound 191] |
| 884 nM | 2490 nM | N#Cc1c(N)nc(SCC2CCCOC2)c(C#N)c1-c1ccc(OC2COC2)cc1 (stereo not shown) [Compound 9] |
| > 10000 nM | > 10000 nM | N#Cc1c(N)nc(SCCC(F)(F)F)c(C#N)c1-c1ccc(O[C@H]2C[C@H](O)C2)cc1 [Compound 328] |
| > 10000 nM | 5850 nM | N#Cc1cnc(SCC2CCCO2)c(C#N)c1-c1ccc(OCCO)cc1 (stereo not shown) [Compound 1] |
| > 10000 nM | 150 nM | N#Cc1c(N)nc(SCc2cccc3occc23)c(C#N)c1-c1ccc(OCCO)cc1 [Compound 7] |

| SMILES | EC50 [1] | EC50 [2] |
| --- | --- | --- |
| N#Cc1c(N)nc(SCc2cccnc2)c(C#N)c1-c1ccc(O[C@H]2C[C@H](O)C2)cc1 [Compound 295, 2-Amino-4-(4-((1r,3r)-3-hydroxycyclobutoxy)phenyl)-6-((pyridin-3-ylmethyl)thio)pyridine-3,5-dicarbonitrile] | 1.6 nM | 9.79 nM |
